Measurements published in patent US20250018047A1, “METHODS AND COMPOSITIONS FOR TARGETED PROTEIN DEGRADATION” (Ranok Therapeutics (Hangzhou) Co. Ltd., priority 2021, published 2025).
Where a name gives a salt, the structure may show the parent alone.

What was measured:
[1] = molecular target: T1, KRAS(G12D)/SOS1 (Homo sapiens, UniProt P01116, G12D); test: KRAS(G12D)/SOS1 homogeneous time-resolved fluorescence (HTRF) assay; assay type: binding; details: absence of GTP, 4° C. for 3 hr
T1 construct: purchased Cisbio 63ADK000CB16PEG
T1 sequence (P01116 1-188 isoform P01116-2 G12D): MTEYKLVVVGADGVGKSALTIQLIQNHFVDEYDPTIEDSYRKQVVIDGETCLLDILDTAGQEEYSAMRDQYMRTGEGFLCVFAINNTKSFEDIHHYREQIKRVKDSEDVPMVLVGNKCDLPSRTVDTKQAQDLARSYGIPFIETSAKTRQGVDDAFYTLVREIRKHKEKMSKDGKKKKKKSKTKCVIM
Method: The test compound was mixed and incubated with reaction components, incubated in a sealed plate at 4° C. for 3 hr and fluorescence was measured using a PerkinElmer Envision plate reader.

[2] = test system: A-427 human lung carcinoma; test: CellTiter-Glo cancer cell line proliferation assay, A-427; assay type: cell-based; details: Homo sapiens, A-427, 24 hr, read-out: A427 at 24 hrs, IC50
Method in brief: (§1)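 Cells plated at 4,000/well, grown 24 h at 37 °C/5% CO2, then exposed to compound concentration series (0.5% DMSO final) for 24 h. Viability read by CellTiter-Glo luminescence; IC50 values calculated.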

[3] = molecular target: BA/F3-KRAS(G12D) murine pro-B cell line stably expressing KRAS(G12D) (Homo sapiens, UniProt P01116, G12D, cells depend on it); test: CellTiter-Glo cancer cell line proliferation assay, BA/F3-KRAS(G12D); assay type: cell-based; details: 24 hr, read-out: BAF3 at 24 hrs, IC50
Sequence of BA/F3-KRAS(G12D) murine pro-B cell line stably expressing KRAS(G12D) (P01116 whole entry G12D): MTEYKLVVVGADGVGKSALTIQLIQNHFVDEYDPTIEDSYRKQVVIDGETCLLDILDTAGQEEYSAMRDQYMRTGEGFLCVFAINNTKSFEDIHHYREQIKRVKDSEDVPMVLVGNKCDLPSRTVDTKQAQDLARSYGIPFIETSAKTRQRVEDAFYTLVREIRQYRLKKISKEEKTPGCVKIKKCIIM
Method: The following cancer cell lines were employed: AsPC-1 human pancreatic adenocarcinoma (ATCC, #CRL-1682); A-427 human lung carcinoma (ATCC, #HTB-53); BA/F3-KRAS(G12D) murine pro-B cell line stably expressing KRAS(G12D) (Precedo, Hefei, China). Cell lines were cultured according to ATCC and recommendations. BA/F3-KRAS(G12D) cells were cultured in RPMI 1640 media with 10% fetal calf serum, 100 units/mL penicillin and […] streptomycin, and 1% glutamine.
CellTiter-Glo® Reagent Cancer Cell Line Proliferation Assays
Cells were plated in 96-well tissue culture plates at 4,000 cells/well and incubated at 37° C./5% CO2 for 24 hr in 100 μl of media. 3-fold serial dilutions of each test compound were prepared ranging from 20 μM to 1.02 nM. Cells were then treated with test compounds at various concentrations with a final concentration of 0.5% DMSO/well, and then incubated at 37° C./5% CO2 for 24 hr. 100 μl of CellTiter-Glo® Reagent (Promega Corporation, Madison, WI) was added to each well and processed according manufacturer's protocol. Results were analyzed and IC50-values were calculated in GraphPad 7 software.

[4] = test system: AsPC-1 human pancreatic adenocarcinoma; test: CellTiter-Glo cancer cell line proliferation assay, AsPC-1; assay type: cell-based; details: Homo sapiens, ASPC1, 24 hr
Method in brief: as §1

SMILES | IC50 [1] [nM] | IC50 [2] [nM] | GI50 [3] [nM] | IC50 [4] [nM]
CN1C[C@@H](N2CCC(C(=O)NCCOCCOc3ccc4c(c3)C(=O)N(C3CCC(=O)NC3=O)C4=O)CC2)C[C@H]1COc1nc(N2CC3CCC(C2)N3)c2cnc(-c3cccc4ccccc34)c(F)c2n1 (stereo partly drawn) [Compound 21, 1-((3S,5S)-5-(((4-(3,8-diazabicyclo[3.2.1]octan-3-yl)-8-fluoro-7-(naphthalen-1-yl)pyrido[4,3-d]pyrimidin-2-yl)oxy)methyl)-1-methylpyrrolidin-3-yl)-N-(2-(2-((2-(2,6-dioxopiperidin-3-yl)-1,3-dioxoisoindolin-5-yl)oxy)ethoxy)ethyl)piperidine-4-carboxamide formate] | 100 to 1000 | > 1000 | > 1000 | > 1000
CN1C[C@@H](N2CCC(C(=O)NCCOc3ccc4c(c3)C(=O)N(C3CCC(=O)NC3=O)C4=O)CC2)C[C@H]1COc1nc(N2CC3CCC(C2)N3)c2cnc(-c3cccc4ccccc34)c(F)c2n1 (stereo partly drawn) [Compound 22, 1-((3S,5S)-5-(((4-(3,8-diazabicyclo[3.2.1]octan-3-yl)-8-fluoro-7-(naphthalen-1-yl)pyrido[4,3-d]pyrimidin-2-yl)oxy)methyl)-1-methylpyrrolidin-3-yl)-N-(2-((2-(2,6-dioxopiperidin-3-yl)-1,3-dioxoisoindolin-5-yl)oxy)ethyl)piperidine-4-carboxamide formate] | > 1000 | > 1000 | > 1000 | > 1000
Cc1ncsc1-c1ccc(CNC(=O)[C@@H]2C[C@@H](O)CN2C(=O)[C@@H](NC(=O)C2CCN([C@H]3C[C@@H](COc4nc(N5CC6CCC(C5)N6)c5cnc(-c6cccc7ccccc67)c(F)c5n4)N(C)C3)CC2)C(C)(C)C)cc1 [Compound 23, 1-((3S,5S)-5-(((4-(3,8-diazabicyclo[3.2.1]octan-3-yl)-8-fluoro-7-(naphthalen-1-yl)pyrido[4,3-d]pyrimidin-2-yl)oxy)methyl)-1-methylpyrrolidin-3-yl)-N—((S)-1-((2S,4R)-4-hydroxy-2-((4-(4-methylthiazol-5-yl)benzyl)carbamoyl)pyrrolidin-1-yl)-3,3-dimethyl-1-oxobutan-2-yl)piperidine-4-carboxamide formate] | > 1000 | > 1000 | > 1000 | > 1000
Cc1ncsc1-c1ccc(CNC(=O)[C@@H]2C[C@@H](O)CN2C(=O)[C@@H](NC(=O)C2CCN([C@H]3C[C@@H](COc4nc(N5CC6CCC(C5)N6)c5cnc(-c6cccc7cccc(Cl)c67)c(F)c5n4)N(C)C3)CC2)C(C)(C)C)cc1 [Compound 24, 1-((3S,5S)-5-(((4-(3,8-diazabicyclo[3.2.1]octan-3-yl)-7-(8-chloronaphthalen-1-yl)-8-fluoropyrido[4,3-d]pyrimidin-2-yl)oxy)methyl)-1-methylpyrrolidin-3-yl)-N—((S)-1-((2S,4R)-4-hydroxy-2-((4-(4-methylthiazol-5-yl)benzyl)carbamoyl)pyrrolidin-1-yl)-3,3-dimethyl-1-oxobutan-2-yl)piperidine-4-carboxamide formate] | 100 to 1000 | > 1000 | > 1000 | > 1000
CN1C[C@@H](N2CCC(C(=O)Nc3ccc4c(c3)C(=O)N(C3CCC(=O)NC3=O)C4=O)CC2)C[C@H]1COc1nc(N2CC3CCC(C2)N3)c2cnc(-c3cccc4ccccc34)c(F)c2n1 (stereo partly drawn) [Compound 25, 1-((3S,5S)-5-(((4-(3,8-diazabicyclo[3.2.1]octan-3-yl)-8-fluoro-7-(naphthalen-1-yl)pyrido[4,3-d]pyrimidin-2-yl)oxy)methyl)-1-methylpyrrolidin-3-yl)-N-(2-(2,6-dioxopiperidin-3-yl)-1,3-dioxoisoindolin-5-yl)piperidine-4-carboxamide formate] | < 100 | > 1000 | > 1000 | > 1000
